Measurements published in patent US20260250318A1, “COMPOSITIONS AND METHODS FOR CROSSING THE BLOOD BRAIN BARRIER” (VOYAGER THERAPEUTICS, INC., priority 2022, published 2026).

Key:
[1] = system: brains, heart, liver, muscle, and DRG of the NHPs; assay: Maturation of TTM-001 and TTM-002 capsids, NGS enrichment in NHP tissues; assay type: in vivo; conditions: relative to AAV9 control
Outline: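 Variants carry mutations within and flanking the loop IV peptide insert: positions 450–466 were triplet-randomized, while positions 449–466 received low-frequency point mutations. The combined pool went into two NHPs, and each peptide was scored by NGS enrichment ratio against AAV9.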

[2] = system: brain; assay: Matured TTM-001 and TTM-002 variants, NGS enrichment in mouse brain; assay type: in vivo, mice; conditions: relative to AAV9 control
[3] = NGS fold-enrichment of matured AAV capsid variants, NHP brain, RNA
[4] = NGS fold-enrichment of RNA, NHP brain
[5] = NGS fold-enrichment, DRG of NHPs
[6] = NGS fold-enrichment, NHP liver DNA
[7] = NGS fold-enrichment, NHP liver RNA
[8] = NGS fold-enrichment, NHP muscle
[9] = NGS fold-enrichment, RNA, brain of NHPs
[10] = NGS fold-enrichment, heart of NHPs
[11] = NGS fold-enrichment, liver DNA of NHPs
[12] = NGS fold-enrichment, liver RNA of NHPs
[13] = NGS fold-enrichment, muscle of NHPs
[14] = NGS fold-enrichment, brain of mice
[15] = NGS fold-enrichment, mouse brain

Row | Sequence | Fold Enrichment relative to AAV9, Brain (NHP) [1, 4] [fold] | Fold Enrichment relative to AAV9, DRG (NHP) [1, 5] [fold] | Fold Enrichment relative to AAV9, DRG (NHP) ([1]; NGS fold-enrichment, NHP DRG) [fold] | Fold Enrichment relative to AAV9, Heart (NHP) ([1]; NGS fold-enrichment, NHP heart) [fold] | Fold Enrichment relative to AAV9, Liver DNA (NHP) [1, 6] [fold] | Fold Enrichment relative to AAV9, Liver RNA (NHP) [1, 7] [fold] | Fold Enrichment relative to AAV9, Muscle (NHP) [1, 8] [fold] | Fold Enrichment relative to AAV9, Brain (NHP) [1, 9] [fold] | Fold Enrichment relative to AAV9, Heart (NHP) [1, 10] [fold] | Fold Enrichment relative to AAV9, Liver DNA (NHP) [1, 11] [fold] | Fold Enrichment relative to AAV9, Liver RNA (NHP) [1, 12] [fold] | Fold Enrichment relative to AAV9, Muscle (NHP) [1, 13] [fold] | Fold Enrichment relative to AAV9, Brain (Mouse) [2, 14] [fold] | Fold Enrichment relative to AAV9, Brain (Mouse) [2, 15] [fold] | other results
1 | KTEGLSGSPHSKAQNQQT | – | – | – | – | – | – | – | – | – | – | – | – | – | – | Fold Enrichment relative to AAV9, Brain (NHP) [1, 3]: 52.891 fold; Fold Enrichment relative to AAV9, DRG (NHP) ([1]; NHP DRG): 0.000 fold; Fold Enrichment relative to AAV9, Heart (NHP) ([1]; NHP heart): 0.000 fold; Fold Enrichment relative to AAV9, Liver DNA (NHP) ([1]; NHP liver, DNA): 0.155 fold; Fold Enrichment relative to AAV9, Liver RNA (NHP) ([1]; NHP liver, RNA): 0.104 fold; Fold Enrichment relative to AAV9, Muscle (NHP) ([1]; NHP muscle): 0.020 fold; Fold Enrichment relative to AAV9, Brain (Mouse) ([2]; mouse brain): 104.529 fold
2 | KTEHLSGSPHSKAQNQQT | 83.080 | 0.000 | 0.000 | 0.000 | 0.189 | 0.021 | 0.012 | 83.080 | 0.000 | 0.189 | 0.021 | 0.012 | 69.494 | 69.494 | –
3 | KTEHVSGSPHSKAQNQQT | – | – | – | – | – | – | – | – | – | – | – | – | – | – | Fold Enrichment relative to AAV9, Brain (NHP) [1, 3]: 58.228 fold; Fold Enrichment relative to AAV9, DRG (NHP) ([1]; NHP DRG): 0.000 fold; Fold Enrichment relative to AAV9, Heart (NHP) ([1]; NHP heart): 0.024 fold; Fold Enrichment relative to AAV9, Liver DNA (NHP) ([1]; NHP liver, DNA): 0.141 fold; Fold Enrichment relative to AAV9, Liver RNA (NHP) ([1]; NHP liver, RNA): 0.433 fold; Fold Enrichment relative to AAV9, Muscle (NHP) ([1]; NHP muscle): 0.000 fold; Fold Enrichment relative to AAV9, Brain (Mouse) ([2]; mouse brain): 71.410 fold
4 | KTEITSGSPHSKAQNQQT | 79.620 | 0.000 | 0.000 | 0.163 | 0.074 | 0.332 | 0.000 | 79.620 | 0.163 | 0.074 | 0.332 | 0.000 | 76.686 | 76.686 | –
5 | KTEKASGSPHSKAQNQQT | 80.285 | 0.000 | 0.000 | 0.041 | 0.261 | 0.000 | 0.000 | 80.285 | 0.041 | 0.261 | 0.000 | 0.000 | 90.390 | 90.390 | –
6 | KTEKGSGSPHSKAQNQQT | 105.614 | 0.053 | 0.053 | 0.031 | 0.169 | 0.586 | 0.000 | 105.614 | 0.031 | 0.169 | 0.586 | 0.000 | 84.653 | 84.653 | –
7 | KTEKISGSPHSKAQNQQT | 116.603 | 0.000 | 0.000 | 0.000 | 0.426 | 0.000 | 0.000 | 116.603 | 0.000 | 0.426 | 0.000 | 0.000 | 102.978 | 102.978 | –
8 | KTEKMSGSPHSKAQNQQT | 169.461 | 0.523 | 0.523 | 0.000 | 0.158 | 0.000 | 0.000 | 169.461 | 0.000 | 0.158 | 0.000 | 0.000 | 109.161 | 109.161 | –
9 | KTEKNSGSPHSKAQNQQT | – | 0.000 | – | – | – | – | – | 73.347 | 0.000 | 0.021 | 0.159 | 0.044 | 74.393 | – | –
